# In US7799819B2, “7-Amido-isoindolyl compounds and their pharmaceutical uses” (Celgene Corporation, priority 2003, dated 2010):
# Counter-ions that a name gives are not always drawn.
row,SMILES,melting point
1,"CCOc1cc([C@@H](CCS(C)(=O)=O)N2Cc3cccc(NC(=O)C4CC4)c3C2=O)ccc1OC [Example 8, (1R)-Cyclopropanecarboxylic acid {2-[1-(3-ethoxy-4-methoxy-phenyl)-3-methanesulfonyl-propyl]-3-oxo-2,3-dihydro-1H-isoindol-4-yl}-amide]",148 to 150 °C
2,"CCOc1cc([C@@H](CCNS(C)(=O)=O)N2Cc3cccc(NC(=O)C4CC4)c3C2=O)ccc1OC [Example 4, (1R)-Cyclopropanecarboxylic acid {2-[1-(3-ethoxy-4-methoxy-phenyl)-3-methanesulfonylamino-propyl]-3-oxo-2,3-dihydro-1H-isoindol-4-yl}-amide]",93 to 95 °C
3,CCOc1cc([C@@H](CS(C)(=O)=O)N2Cc3c(Cl)ccc(NC(=O)CN4CCOCC4)c3C2=O)ccc1OC.Cl,198 to 200 °C
4,"CCOc1cc(C(CCN(OC(=O)OC(C)(C)C)C(=O)OC(C)(C)C)N2Cc3cccc(NC(=O)C4CC4)c3C2=O)ccc1OC [Example 2, (3R)-(tert-Butoxy)-N-{3-[7-(cyclopropylcarbonylamino)-1-oxoisoindolin-2-yl]-3-(3-ethoxy-4-methoxyphenyl)propyl}carbonylamino(tert-butoxy)formate]",153 to 155 °C
5,"CCOc1cc([C@@H](CCN)N2Cc3cccc(NC(=O)C4CC4)c3C2=O)ccc1OC (as salt: salt) [Example 5, (1R)-Cyclopropanecarboxylic acid {2-[3-amino-1-(3-ethoxy-4-methoxy-phenyl)-propyl]-3-oxo-2,3-dihydro-1H-isoindol-4-yl}-amide]",169 to 171 °C
6,CCOc1cc([C@@H](CCN(C)C)N2Cc3cccc(NC(=O)C4CC4)c3C2=O)ccc1OC.Cl,119 to 121 °C

# The remaining lines, values ahead:
row,melting point,SMILES
1,159 to 161 °C,"CCOc1cc(C(Cc2c(Cl)cncc2Cl)N2Cc3cccc(NC(=O)C4CC4)c3C2=O)ccc1OC (stereo not drawn) [Example 22, Cyclopropanecarboxylic acid {2-[2-(3,5-dichloro-pyridin-4-yl)-1-(3-ethoxy-4-methoxy-phenyl)-ethyl]-3-oxo-2,3-dihydro-1H-isoindol-4-yl}-amide]"
2,205 to 207 °C,"CCOc1cc([C@@H](CS(C)(=O)=O)N2Cc3c(Cl)ccc(NC(=O)N(C)C)c3C2=O)ccc1OC [Example 29, (1S)-3-{7-Chloro-2-[1-(3-ethoxy-4-methoxy-phenyl)-2-methanesulfonyl-ethyl]-3-oxo-2,3-dihydro-1H-isoindol-4-yl}-1,1-dimethyl-urea]"
3,158 to 160 °C,"CCOc1cc([C@@H](CC(=O)OC)N2Cc3c(Cl)ccc(NC(=O)C4CC4)c3C2=O)ccc1OC [Example 13, (3R)-3-[4-Chloro-7-(cyclopropanecarbonyl-amino)-1-oxo-1,3-dihydro-isoindol-2-yl]-3-(3-ethoxy-4-methoxy-phenyl)-propionic acid methyl ester]"
4,163 to 165 °C,"CCOc1cc([C@@H](CC(=O)N(C)C)N2Cc3c(Cl)ccc(NC(=O)C4CC4)c3C2=O)ccc1OC [Example 15, (1R)-Cyclopropanecarboxylic acid {7-chloro-2-[2-dimethylcarbamoyl-1-(3-ethoxy-4-methoxy-phenyl)-ethyl]-3-oxo-2,3-dihydro-1H-isoindol-4-yl}-amide]"
5,146 to 148 °C,"CCOc1cc([C@@H](CC(=O)NOC(=O)C(C)(C)C)N2Cc3cccc(NC(=O)C4CC4)c3C2=O)ccc1OC [Example 26, (1R)-Cyclopropanecarboxylic acid {2-[2-(2,2-dimethyl-propionyloxycarbamoyl)-1-(3-ethoxy-4-methoxy-phenyl)-ethyl]-3-oxo-2,3-dihydro-1H-isoindol-4-yl}-amide]"
6,200 to 202 °C,"CCOc1cc(C(CC#N)N2Cc3c(Cl)ccc(NC(=O)C4CC4)c3C2=O)ccc1OC (stereo not drawn) [Example 21, Cyclopropanecarboxylic acid {7-chloro-2-[2-cyano-1-(3-ethoxy-4-methoxy-phenyl)-ethyl]-3-oxo-2,3-dihydro-1H-isoindol-4-yl}-amide]"
